Experimental data as given in patent publication US20060198882A1, “Stable liposomes or micelles comprising a sphinolipid and a peg-lipopolymer” (priority 2003, published 2006).

How the values were obtained:
[1] = Injection of ceramide dispersions into mice (tolerance, weight); details: for decrease from initial weight: mouse, in vivo
Method: […] of C2Cer and C6Cer dispersions in ethanol or in ethanol:dodecane (98:2) (required final blood concentration of about 3.3%) were injected to the Balb/c female mice (8 week old).
In addition, 1 μmole/mouse of C2Cer and C6Cer dispersions in ethanol or in ethanol:dodecane (98:2) in isotonic BSA solution (BSA 2 mM, NaCl 112 mM, pH 7.4) was injected in order to reach the final ethanol or ethanol:dodecane blood concentration of about 3.3%. For the preparation of ceramide-BSA complexes the 33 μl of 30 mM stock of C2Cer and C6Cer dispersions were incubated for 30 min at 30° C. with 417 μl of 2 mM BSA solution in order to reach the ceramide/BSA mole ratio of 1/0.8, respectively [Hannun, Supra, 2000].

[2] = Critical aggregation concentration (CAC) by surface tension; type: physicochemical; details: pure water containing 0.3% ethanol, room temperature
Method: The critical aggregation concentration (CAC) of the ceramides is the concentration at which aggregation of monomers to an amphiphile assembly occurs. CAC of the C2, C6, and C16 ceramides was determined in filtered pure water containing 0.3% ethanol by measuring at room temperature surface tension as a function of ceramide concentration. The measurements were done using μThrougs Kibron System (Helsinki, Finland) which determine the surface tension at the air/water interface. The measurement at each concentration was repeated until a constant value of surface tension was reached [Zuidam, N. and Barenholz, Y., Supra (1997)]

[3] = test system: OV-1063 cells; assay: Apoptosis by chromatin morphology (Hoechst-33342, confocal microscopy); type: cell-based, human; details: for Apoptotic OV-1063 cells (% of total cell number), 16 hr: IC50 concentrations
Method: (§1) a) The morphology of chromatin was assessed by staining with Hoechst-33342 obtained from Calbiochem (La Jolla, Calif.), a molecule which when reside in the minor groove of the DNA strand enhance its fluorescence intensity and, therefore, it is preferentially stains dsDNA [Jouvet, P. Mol. Biol. Cell 11:1919-1932 (2000)]. Briefly, samples containing 5*10^5 cells were cultured on 6-well plates covered with a glass coverslip. After treatment of cells with IC50 of drugs, cells were washed with PBS and fixated with 4% formaldehyde. After that cells were stained with Hoechst-33342 (5 μg/ml) and washed. Thereafter, glass coverslip was placed on a glass slide and photographed using a CLMS.

[4] = test system: C-26 cells; assay: as above; type: cell-based, human
Method: as §1

[5] = Surface-pressure area isotherms; type: physicochemical; details: for minimal area per molecule: constant pressure of 20 mN/m; for collapse point pressure of monolayer: pure water sub-phase; for Area/molecule: table, monolayer on pure water sub-phase
Method: The tested ceramides (C2 Cer, C4 Cer, C6 Cer, C8 Cer, C16 Cer) were dried in vacuum overnight, weighted and dissolved in hexane/isopropanol (3:2 vol.) to make the following stock solutions.
The surface-pressure/area isotherms were obtained on pure water sub-phase (similar isotherms were obtained on 140 mM NaCl). Barrier speed during compression was […] for all monolayers.
The minimal area per molecule of different ceramides (C2 Cer, C4 Cer, C6 Cer, C8 Cer, C16 Cer) was calculated at the constant pressure of 20 mN/m. […] The area per molecule of C2 Cer, C4 Cer, C8 Cer, C16 Cer was about 38, 46, 45.5, and 37.5^2, respectively.

[6] = test system: caspase-3 activity in OV-1063 tumor cells; assay: EnzChek Caspase-3 assay; type: cell-based, human; details: 16 hr, IC50 values
Source text: Biochemically, apoptosis was verified by the EnzChek™ Caspase-3 Assay Kit (Molecular Probes). This allows the detection of apoptosis by assaying for increases in caspase-3 and other DEVD-specific protease activities (e.g., caspase-7). The basis for the assay is rhodamine 110 bis-(N-CBZ-aspartyl-L-glutamyl-L-valyl-aspartic acid amide) referred to as Z-DEVD-R110. This substrate is a bisamide derivative of rhodamine 110 (R110) containing DEVD peptides covalently linked to each of R110's amino groups. Upon enzymatic cleavage, the nonfluorescent bisamide substrate is converted to the fluorescent R110, which was quantified by a fluorescence microplate reader (Tecan) using excitation at 485±10 nm and emission at 535±10 nm. […] The AC-DEVD-inhibitor was used to confirm that the observed fluorescence signal in treated samples is due to the activity of caspase-3 protease. Both induced and control cells were then harvested and lysed. Enzyme reactions were performed in 96-well plates with 50 μg of cytosolic proteins (55 min. of incubation) and a final concentration of 25 μM Z-DEVD-R110 substrate, as described in the kit protocol.

| Structure (SMILES) | decrease from initial weight [1] | CAC (critical aggregation concentration) [2] | Apoptotic OV-1063 cells (% of total cell number), 24 hr [3] [%] | Apoptotic OV-1063 cells (% of total cell number), 16 hr [3] [%] | Apoptotic C-26 cells (% of total cell number), 16 hr [4] [%] | Apoptotic C-26 cells (% of total cell number), 24 hr [4] [%] | monolayer stability [5] | minimal area per molecule [5] | collapse point pressure of monolayer [5] | Area/molecule [5] [A^2] | death of mice ([1]; ethanol:dodecane (98:2) dispersions) | increase in caspase-3 activity vs control, untreated cells [6] |
| --- | --- | --- | --- | --- | --- | --- | --- | --- | --- | --- | --- | --- |
| CCCCCCCCCCCCC/C=C/[C@@H](O)[C@H](CO)NC(C)=O [C2Cer, N-Acetyl-D-erythro-sphingosine] | about 5% | 10^−6M | 60 | 48 | 7 | 14 | did not give a stable monolayer | about 38 Å^2 | about 42 mN/m | 38 |  |  |
| CCCCCCCCCCCCC/C=C/[C@@H](O)[C@H](CO)NC(=O)CCCCC [C6Cer, N-hexanoyl-D-erythro-sphingosine] | about 5% |  | 61 | 53 | 9 | 18 |  | about 50 Å^2 | about 42 mN/m | 50 | died during the injection |  |
| CCCCCCCCCCCCC/C=C/[C@@H](O)[C@H](CO)NC(=O)CCCCCCCCCCCCCCC [C16Cer, N-palmitoyl-D-erythro-sphingosine] |  |  | 17 |  |  | 9 | unstable monolayer | ~37.5 Å^2 | up to 50 mN/m | 37.5 |  | no activation |
